# Target: Cyclin-dependent kinase 6/G1/S-specific cyclin-D3 (Homo sapiens, UniProt Q00534)
# Test: Biological Assay
# Procedure: CDK6/Cyclin D3: The purpose of the CDK6/Cyclin D3 assay is to evaluate the inhibition (% inhibition, Kiapp and Ki values) in the presence of small molecule inhibitors by using a fluorescence based microfluidic mobility shift assay. […] The mobility shift assay electrophoretically separates the fluorescently labeled peptides (substrate and phosphorylated product) following the kinase reaction. Both substrate and product are measured and the ratio of these values is used to generate % conversion of substrate to product by the LabChip EZ Reader.
# Sequence of Cyclin-dependent kinase 6/G1/S-specific cyclin-D3 (Q00534 whole entry): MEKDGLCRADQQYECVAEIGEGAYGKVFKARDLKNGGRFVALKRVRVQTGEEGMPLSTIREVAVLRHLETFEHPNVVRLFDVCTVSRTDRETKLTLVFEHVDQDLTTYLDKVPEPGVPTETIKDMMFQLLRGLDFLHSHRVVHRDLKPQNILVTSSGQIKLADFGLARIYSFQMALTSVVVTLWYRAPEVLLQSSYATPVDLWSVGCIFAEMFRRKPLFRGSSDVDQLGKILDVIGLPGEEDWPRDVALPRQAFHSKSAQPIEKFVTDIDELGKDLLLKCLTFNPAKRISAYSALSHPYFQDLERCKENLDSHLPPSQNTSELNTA
# Sequence of Cyclin-dependent kinase 6/G1/S-specific cyclin-D3 (P30281 whole entry, further chain): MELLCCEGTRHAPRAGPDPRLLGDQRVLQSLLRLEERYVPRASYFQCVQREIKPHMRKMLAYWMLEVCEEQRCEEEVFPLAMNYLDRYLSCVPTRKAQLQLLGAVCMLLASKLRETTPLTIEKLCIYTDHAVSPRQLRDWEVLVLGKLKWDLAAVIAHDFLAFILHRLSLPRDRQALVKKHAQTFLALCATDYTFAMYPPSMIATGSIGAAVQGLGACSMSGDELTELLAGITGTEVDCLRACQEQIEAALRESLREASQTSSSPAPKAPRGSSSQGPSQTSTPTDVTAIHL
smiles,measurement,value
"Cc1nc2c(F)cc(-c3cc(N[C@@H]4CCN(S(C)(=O)=O)C[C@H]4O)ncc3Cl)cc2n1C(C)C [US10766884, Example E01]",Ki,1.4 nM

# From BindingDB's records for patent US10766884 (Pfizer Inc., 2020)
